Literature values, collected in publication PMC11676910, “Manganese(II) Complexes with Non-Steroidal Anti-Inflammatory Drugs: Structure and Biological Activity” (International Journal of Molecular Sciences, 2024).
Read-outs that look alike come from different tables or passages of the source.

Tests used:
[1] = design: concentration or dose not given beside the values; conditions: free NSAID; cited from earlier work
CT DNA = conditions: cited from earlier work
EB–DNA adduct (CT DNA) = conditions: cited from earlier work
[2] = target: bovine serum albumin (BSA) (Bos taurus, UniProt P02769); design: purchased Sigma–Aldrich Co; conditions: cited from earlier work
[3] = target: human serum albumin (HSA) (Homo sapiens, UniProt P02768); design: purchased Sigma–Aldrich Co; conditions: cited from earlier work
Chain of human serum albumin (HSA) (P02768 25-609): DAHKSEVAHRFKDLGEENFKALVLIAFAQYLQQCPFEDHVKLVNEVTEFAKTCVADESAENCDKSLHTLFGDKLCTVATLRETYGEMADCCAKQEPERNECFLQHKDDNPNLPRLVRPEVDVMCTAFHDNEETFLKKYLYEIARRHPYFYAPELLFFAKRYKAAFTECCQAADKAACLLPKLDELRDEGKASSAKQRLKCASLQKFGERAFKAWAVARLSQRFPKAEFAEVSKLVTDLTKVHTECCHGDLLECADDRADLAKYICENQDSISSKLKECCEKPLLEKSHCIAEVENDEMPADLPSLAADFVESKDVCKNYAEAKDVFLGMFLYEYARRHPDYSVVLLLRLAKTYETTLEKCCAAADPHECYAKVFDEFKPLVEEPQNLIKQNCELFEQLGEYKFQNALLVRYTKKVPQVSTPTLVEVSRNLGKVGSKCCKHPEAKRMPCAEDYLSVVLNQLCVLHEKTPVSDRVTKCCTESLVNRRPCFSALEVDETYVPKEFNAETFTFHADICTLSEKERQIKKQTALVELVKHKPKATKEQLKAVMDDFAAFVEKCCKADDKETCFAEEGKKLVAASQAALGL

Chain of bovine serum albumin (BSA) (P02769 25-607): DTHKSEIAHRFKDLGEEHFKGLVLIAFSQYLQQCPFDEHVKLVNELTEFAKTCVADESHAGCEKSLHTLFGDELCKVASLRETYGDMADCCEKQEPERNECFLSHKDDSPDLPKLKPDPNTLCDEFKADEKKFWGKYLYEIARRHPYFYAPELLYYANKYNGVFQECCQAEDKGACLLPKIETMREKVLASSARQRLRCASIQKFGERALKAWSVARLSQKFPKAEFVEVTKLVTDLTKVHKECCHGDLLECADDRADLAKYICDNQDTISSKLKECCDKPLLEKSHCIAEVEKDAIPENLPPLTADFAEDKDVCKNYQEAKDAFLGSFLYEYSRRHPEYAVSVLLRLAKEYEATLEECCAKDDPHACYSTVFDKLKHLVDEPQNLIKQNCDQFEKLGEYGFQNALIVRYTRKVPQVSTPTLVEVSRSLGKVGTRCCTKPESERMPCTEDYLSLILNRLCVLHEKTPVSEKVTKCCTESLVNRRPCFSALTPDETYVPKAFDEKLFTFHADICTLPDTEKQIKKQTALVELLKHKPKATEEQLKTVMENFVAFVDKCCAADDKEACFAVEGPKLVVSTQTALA

SMILES	% ABTS radical scavenging activity (ABTS%) [1] [%]	ΔA/A0 (%) hyper-/hypo-chromism of UV band (CT DNA; first band listed in the cell)	Δλ (nm) shift of λmax (CT DNA; first band listed in the cell)	ΔA/A0 (%) hyper-/hypo-chromism of UV band (CT DNA; second band listed in the cell)	Δλ (nm) shift of λmax (CT DNA; second band listed in the cell) [nm]	EB–DNA fluorescence quenching ΔI/Io (%) (EB–DNA adduct (CT DNA))	Stern–Volmer constant KSV (EB–DNA) (EB–DNA adduct (CT DNA))	quenching constant kq of the EB–DNA fluorescence (EB–DNA adduct (CT DNA))	BSA binding constant Κ(BSA) [2]	BSA quenching constant kq(BSA) [2]	HSA binding constant Κ(HSA) [3]	HSA quenching constant kq(HSA) [3]
O=C(O)c1ccccc1Nc1cccc(C(F)(F)F)c1 [Hfluf, flufenamic acid]	64.57 ± 0.43	+40%	+10 nm	< −50%	0	67.0	6.34 (±0.30) × 10^5 M^–1	2.76 (±0.13) × 10^13 M^–1s^–1	1.06 (±0.04) × 10^6 M^–1	1.83 (±0.20) × 10^13 M^–1s^–1	1.79 (±0.17) × 10^5 M^–1	1.86 (±0.21) × 10^12 M^–1s^–1
Cc1cccc(Nc2ccccc2C(=O)O)c1C [Hmef, mefenamic acid]	66.32 ± 0.38	+10%	0 nm	–	–	80.0	1.58 (±0.06) × 10^5 M^–1	6.87 (±0.26) × 10^12 M^–1s^–1	1.35 (±0.22) × 10^5 M^–1	2.78 (±0.20) × 10^13 M^–1s^–1	1.32 (±0.15) × 10^5 M^–1	7.13 (±0.34) × 10^12 M^–1s^–1
Cc1c(Cl)cccc1Nc1ccccc1C(=O)O [Htolf, tolfenamic acid]	59.43 ± 0.33	+40%	+5 nm	< −50%	−2	74.0	1.15 (±0.04) × 10^6 M^–1	5.00 (±0.17) × 10^13 M^–1s^–1	1.60 (±0.14) × 10^5 M^–1	2.18 (±0.12) × 10^13 M^–1s^–1	3.12 (±0.25) × 10^5 M^–1	6.10 (±0.38) × 10^12 M^–1s^–1
Cc1ccc(Cl)c(Nc2ccccc2C(=O)O)c1Cl [Na meclf, sodium meclofenamate]	59.48 ± 0.06	−12%	−1 nm	+5%	−2	80.1	8.20 (±0.26) × 10^4 M^–1	3.57 (±0.11) × 10^12 M^–1s^–1	1.78 (±0.11) × 10^6 M^–1	4.84 (±0.32) × 10^13 M^–1s^–1	1.05 (±0.03) × 10^6 M^–1	2.98 (±0.31) × 10^13 M^–1s^–1
